As usually defined, the IC50 is the concentration that inhibits the measured activity by half. High values mean weaker potency, low ones greater potency. Usually inhibition stands for the drop in the measured response relative to a control, in per cent. Low values mean a response near the control, high ones a response far below the control.

These results are taken from PMC4346889, “Discovery of Akt Kinase Inhibitors through Structure-Based Virtual Screening and Their Evaluation as Potential Anticancer Agents” (International Journal of Molecular Sciences, 2015).

Series [1] has as its target T1, Akt kinase (Homo sapiens, UniProt P31749).
T1 construct: purchased Enzo Life Sciences EKS-400A
Conditions: cited from earlier work.

Series [2] concerns HCT-116 human colon cancer cells. In words: Cytotoxicity evaluation, ATPLite cell viability. Format: cell-based. The conditions noted are these: at 100 µM, compared with reference H-89. The protocol:
(§1) The 26 test compounds (as listed in Figure 4) were further evaluated at 100 µM for their cytotoxicity against HCT-116 human colon cancer cells and HEK-293 normal human embryonic kidney cells. […] Their chemical structures are shown in Figure S1 in the Supplementary Material.
(§2) Compounds were evaluated at 100 µM for their cytotoxicity against HCT-116 human colon cancer cells and HEK-293 normal human embryonic kidney cells. Cells were seeded at a density of 1 × 10^4 cells/well in 96-well plates and allowed to attach overnight. Cells were then treated with test compounds or 1% DMSO (vehicle control) and incubated at 37 °C in an atmosphere of 5% CO2 for 2 days. The ATPLite kit (PerkinElmer, Waltham, MA, USA) was used for detecting the cell viability.
A general note: Cellular ATP, detected with luciferase, serves as a proxy for viable cell number.

Series [3] concerns HEK-293 normal human embryonic kidney cells. The experiment in a line: Cytotoxicity evaluation, ATPLite cell viability. Format: cell-based. Conditions: HEK293, 48 h, concentration required to inhibit cell growth by 50%, 2 days incubation. As to the method:
as §1, §2

Series [4] has as its system HCT-116 human colon cancer cells. In words: Cytotoxicity evaluation, ATPLite cell viability. Format: cell-based. The conditions noted are these: for IC50: Homo sapiens, HCT-116, 48 h, concentration required to inhibit cell growth by 50%, 2 days incubation; for Selectivity index: ratio of IC50 for HEK-293/IC50 for HCT-116.
The target of series [5] is T1, Akt kinase. The experiment in a line: Akt kinase inhibition assay (EKS-400A assay kit). Format: biochemical. As to the method: The 48 selected compounds from virtual screening were assessed at 100 µM for their ability to inhibit Akt kinase activity using the EKS-400A assay kit (Enzo Life Sciences, Farmingdale, NY, USA).
Compounds were evaluated at 100 µM for their ability to inhibit Akt kinase activity using the EKS-400A assay kit (Enzo Life Sciences). Test compounds or 1% DMSO (vehicle control) were incubated with the 8 ng pure Akt kinase in Hanks’ Balanced Salt Solution (HBSS) at 37 °C for 30 min.

A value given as a limit tells only on which side of the number the result lay.

T1 sequence (P31749 whole entry): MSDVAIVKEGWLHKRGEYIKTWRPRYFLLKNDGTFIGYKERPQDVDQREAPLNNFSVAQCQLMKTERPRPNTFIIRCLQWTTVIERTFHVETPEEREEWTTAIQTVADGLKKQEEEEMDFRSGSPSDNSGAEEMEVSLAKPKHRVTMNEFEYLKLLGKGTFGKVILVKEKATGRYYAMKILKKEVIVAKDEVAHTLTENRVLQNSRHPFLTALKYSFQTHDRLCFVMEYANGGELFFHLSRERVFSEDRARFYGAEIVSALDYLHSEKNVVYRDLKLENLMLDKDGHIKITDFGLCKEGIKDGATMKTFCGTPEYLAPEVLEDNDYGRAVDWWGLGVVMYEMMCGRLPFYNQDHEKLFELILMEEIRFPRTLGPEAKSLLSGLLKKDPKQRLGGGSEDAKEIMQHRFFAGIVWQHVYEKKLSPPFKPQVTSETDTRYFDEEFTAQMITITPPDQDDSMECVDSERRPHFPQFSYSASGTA

`CCn1c(-c2nonc2N)nc2c(C#CC(C)(C)O)ncc(OC[C@H]3CCCNC3)c21` [GSK690693]: the “pan-Akt kinase inhibitor activity” value in series [1] is “low nanomolar activity”.
On to `Cc1cccc(Nc2nc3nonc3nc2N/N=C/c2cc3c(cc2Br)OCO3)c1C` [a33], for which the “cytotoxic activity against HCT-116 compared to H-89” value in series [2] is given as “more potent or comparable cytotoxic activity to that of H-89”. Besides, the IC50 was determined as 165 µM in series [3] and 109 µM in series [4]. The Selectivity index in series [4] was 1.5.
Regarding `Cc1cccc(-c2nc3cc(/N=C/c4c(C)cc(O)c(C)c4O)ccc3o2)c1` [a44], in series [2], the “cytotoxic activity against HCT-116 compared to H-89” value is recorded as “more potent or comparable cytotoxic activity to that of H-89”. Besides, the IC50 in series [3] turned out to be 102 µM; in series [4] it was 50.6 µM. Further, the Selectivity index in series [4] worked out at 2.0.
Take `Nc1ncnc2nc(SCC(=O)Nc3ccc(Br)cc3)[nH]c12` [Compound a48]: in series [5] (at 100 µM), the inhibition at 100 µM amounted to 75%. Also, the remaining activity at 100 µM in series [5] (compound at 100 µM, read-out: Akt kinase residual activity) is below 60%. This molecule gave an IC50 in series [3] of 153 µM. For the same molecule, in series [4], the IC50 amounted to 9.5 µM and the Selectivity index came out at 16.1.
For `Cc1nn(C)cc1-c1nnc(SCC(=O)Nc2cc(C(F)(F)F)ccc2Cl)n1-c1ccc(Cl)cc1` [Compound a46], the IC50 was determined as 201 µM in series [5], 139 µM in series [3] and 11.1 µM in series [4]. For the same molecule, the Selectivity index in series [4] worked out at 12.5.
As to `O=S(=O)(NCCNC/C=C/c1ccc(Br)cc1)c1cccc2cnccc12` [Compound H-89, H-89, reference compound], the IC50 in series [3] came out at 112 µM; in series [4], 78.9 µM.
